Test results as given in US20110190365A1, “Insecticidal 4-phenyl-1H-pyrazoles” (Bayer Crop Science AG, priority 2008, published 2011).

Assay: log P by HPLC on a reversed-phase column (C18), EEC Directive 79/831 Annex V.A8
Type: physicochemical
Conditions: HCOOH
Description: The stated log P values were determined in accordance with EEC Directive 79/831 Annex V.A8 by HPLC (High Performance Liquid Chromatography) using a reversed-phase column (C18).

SMILES	log P (HCOOH)
Cc1cc(-n2nc(C(F)(F)F)c(-c3cc(Cl)cc(Cl)c3)c2N)ccc1C(=O)NCc1ccncn1 [I-A-Q2-260]	I-A-Q2-260: log P (HCOOH): 3.33
Cc1cc(-n2nc(C(F)(F)F)c(-c3ccc(F)c(F)c3)c2N)ccc1C(=O)NCc1ccccn1 [I-A-Q2-355]	I-A-Q2-355: log P (HCOOH): 2.50
CCC(NC(=O)c1ccc(-n2nc(C(F)(F)F)c(-c3cc(Cl)cc(Cl)c3)c2N)cc1)C(F)(F)F (stereo not shown) [I-A-Q2-067]	I-A-Q2-067: log P (HCOOH): 4.65
Cc1cc(-n2nc(C(F)(F)F)c(-c3ccccc3Br)c2N)ccc1C(=O)NCC(F)(F)C(F)F [I-A-Q2-423]	I-A-Q2-423: log P (HCOOH): 3.55
CC(NC(=O)c1ccc(-n2nc(C(F)(F)F)c(-c3ccc(Br)cc3)c2N)cc1)c1ccccn1 (stereo not shown) [I-A-Q2-192]	I-A-Q2-192: log P (HCOOH): 2.89
Cc1cc(-n2nc(C(F)(F)F)c(-c3cc(Cl)cc(Cl)c3)c2N)ccc1C(=O)NC(C)c1ccc(F)cc1 (stereo not shown) [I-A-Q2-247]	I-A-Q2-247: log P (HCOOH): 4.57
CC(NC(=O)c1ccc(-n2nc(C(F)(F)F)c(-c3ccc(Cl)c(Cl)c3)c2N)cc1)c1ccccn1 (stereo not shown) [I-A-Q2-160]	I-A-Q2-160: log P (HCOOH): 3.23
Nc1c(-c2cc(Cl)cc(Cl)c2)c(C(F)(F)F)nn1-c1ccc(C(=O)NCc2ncccn2)cn1 [I-A-Q2-108]	I-A-Q2-108: log P (HCOOH): 3.80
Cc1cc(-n2nc(C(F)(F)F)c(-c3c(F)cc(F)cc3F)c2N)ccc1C(=O)NCc1ccccn1 [I-A-Q2-350]	I-A-Q2-350: log P (HCOOH): 2.34
Cc1cc(-n2nc(C(F)(F)F)c(-c3cc(Cl)cc(Cl)c3)c2N)ccc1C(=O)NC(=C(Cl)C#N)C(F)(F)F [I-A-Q2-047]	I-A-Q2-047: log P (HCOOH): 4.94
Cc1cc(-n2nc(C)c(-c3c(F)cc(F)cc3F)c2N)ccc1C(=O)NCC(F)(F)C(F)F [I-A-Q2-328]	I-A-Q2-328: log P (HCOOH): 2.48
Cc1cc(-n2nc(C(F)(F)F)c(-c3cc(Cl)cc(Cl)c3)c2N)ccc1C(=O)NC(C)c1cccnc1 (stereo not shown) [I-A-Q2-231]	I-A-Q2-231: log P (HCOOH): 2.69
Cc1cc(C)cc(-c2c(C(F)(F)F)nn(-c3ccc(C(=O)NC4CC4)cc3)c2N)c1 [I-A-Q2-179]	I-A-Q2-179: log P (HCOOH): 3.24
Cc1cc(-n2nc(C(F)(F)F)c(-c3cc(Cl)cc(Cl)c3)c2N)ccc1C(=O)NC(C)Cn1cccn1 (stereo not shown) [I-A-Q2-243]	I-A-Q2-243: log P (HCOOH): 3.78
Cc1cc(-n2nc(C(F)(F)F)c(-c3cc(Cl)cc(Cl)c3)c2N)ccc1C(=O)NCCOC(C(F)(F)F)C(F)(F)F [I-A-Q2-048]	I-A-Q2-048: log P (HCOOH): 4.70
CCCC(NC(=O)c1ccc(-n2nc(C(F)(F)F)c(-c3cc(Cl)cc(Cl)c3)c2N)cc1)C(F)(F)F (stereo not shown) [I-A-Q2-071]	I-A-Q2-071: log P (HCOOH): 4.95
Cc1cc(-n2nc(C(F)(F)F)c(Br)c2N)ccc1C(=O)O [XI-A-086]	XI-A-086: log P (HCOOH): 2.54
Cc1cc(-n2nc(C(F)(F)F)c(-c3ccc(Cl)cc3Cl)c2N)ccc1C(=O)NCc1ccccn1 [I-A-Q2-348]	I-A-Q2-348: log P (HCOOH): 2.84
Nc1c(-c2cc(Cl)cc(Cl)c2)c(C(F)(F)F)nn1-c1ccc(C(=O)NCc2ccccn2)cn1 [I-A-Q2-105]	I-A-Q2-105: log P (HCOOH): 3.61

SMILES	log P (HCOOH)
CC(C)NC(=O)c1ccc(-n2nc(C(F)(F)F)c(-c3cccc(F)c3)c2N)cc1 [I-A-Q2-181]	I-A-Q2-181: log P (HCOOH): 2.98
Cc1cc(-n2nc(C(F)(F)F)c(-c3cc(Cl)cc(Cl)c3)c2N)ccc1C(=O)NCCO [I-A-Q2-272]	I-A-Q2-272: log P (HCOOH): 3.24
Nc1c(-c2cccc(Br)c2)c(C(F)(F)F)nn1-c1ccc(C(=O)NCc2ccccn2)cc1 [I-A-Q2-174]	I-A-Q2-174: log P (HCOOH): 2.50
Cc1cc(-n2nc(C(F)(F)F)c(-c3ccc(I)cc3)c2N)ccc1C(=O)NCc1ccccn1 [I-A-Q2-356]	I-A-Q2-356: log P (HCOOH): 2.93
Nc1c(-c2cc(F)cc(Cl)c2)c(C(F)(F)F)nn1-c1ccc(C(=O)NC2CC2)cc1 [I-A-Q2-092]	I-A-Q2-092: log P (HCOOH): 3.27
Cc1cc(-n2nc(C(F)(F)F)c(-c3cc(Cl)cc(Cl)c3)c2N)ccc1C(=O)NC(C)C(F)(F)F (stereo not shown) [I-A-Q2-011]	I-A-Q2-011: log P (HCOOH): 4.54
Cc1cc(-n2nc(C(F)(F)F)c(-c3cc(Cl)cc(Cl)c3)c2Cl)ccc1C(=O)NCc1ncccn1 [I-A-Q2-277]	I-A-Q2-277: log P (HCOOH): 4.56
Cc1cc(-n2nc(C(C)C)c(-c3ccc(Cl)cc3)c2N)ccc1C(=O)NCc1ccccn1 [I-A-Q2-378]	I-A-Q2-378: log P (HCOOH): 2.61
Cc1cc(-n2nc(C(F)(F)F)c(-c3cc(Cl)cc(Cl)c3)c2N)ccc1C(=O)NCc1ncc(F)cc1F [I-A-Q2-278]	I-A-Q2-278: log P (HCOOH): 4.30
Cc1cnc(CNC(=O)c2ccc(-n3nc(C(F)(F)F)c(-c4cc(Cl)cc(Cl)c4)c3N)cc2C)cn1 [I-A-Q2-265]	I-A-Q2-265: log P (HCOOH): 3.63
Cc1cc(-n2nc(C(F)(F)F)c(-c3cc(Cl)cc(Cl)c3)c2N)ccc1C(=O)NCC1CC1 [I-A-Q2-220]	I-A-Q2-220: log P (HCOOH): 4.11
Cc1cc(-n2nc(C(F)(F)F)c(-c3ccc(Cl)cc3Cl)c2N)ccc1C(=O)NCc1ncccn1 [I-A-Q2-411]	I-A-Q2-411: log P (HCOOH): 3.17
Cc1cc(-n2nc(C(F)(F)F)c(-c3ccc(Cl)cc3)c2N)ccc1C(=O)NCC(F)(F)C(F)F [I-A-Q2-302]	I-A-Q2-302: log P (HCOOH): 3.61
CC(NC(=O)c1ccc(-n2nc(C(F)(F)F)c(-c3ccc(Cl)c(F)c3)c2N)cc1)C(F)(F)F (stereo not shown) [I-A-Q2-169]	I-A-Q2-169: log P (HCOOH): 3.78
CC(NC(=O)c1ccc(-n2nc(-c3ccccc3)c(-c3ccc(Cl)cc3)c2N)cc1)C(F)(F)F (stereo not shown) [I-A-Q2-075]	I-A-Q2-075: log P (HCOOH): 3.94
C=CCNC(=O)c1ccc(-n2nc(C(F)(F)F)c(-c3cc(Cl)cc(Cl)c3)c2N)nc1 [I-A-Q2-104]	I-A-Q2-104: log P (HCOOH): 4.46
COC(=O)c1ccc(-n2nc(C(F)(F)F)c(Cl)c2N)cc1C [XI-A-081]	XI-A-081: log P (HCOOH): 2.76
Cc1cc(-n2nc(C(F)F)c(-c3ccc(F)cc3F)c2N)ccc1C(=O)NCC(F)(F)C(F)F [I-A-Q2-319]	I-A-Q2-319: log P (HCOOH): 2.80
Cc1cc(-n2nc(C(F)(F)Cl)c(-c3cc(Cl)cc(C(F)(F)F)c3)c2N)ccc1C(=O)NCC(F)(F)C(F)F [I-A-Q2-322]	I-A-Q2-322: log P (HCOOH): 4.34

Same assay, conditions: HCOOH; Table 4, compounds of formula I-A-Q4

SMILES	log P (HCOOH)
CSc1c(-c2ccc(Cl)c(Cl)c2)c(C(F)(F)F)nn1-c1ncc(Cl)cn1 [I-A-Q4-020]	I-A-Q4-020: log P (HCOOH): 5.22
Nc1c(-c2cc(Cl)cc(Cl)c2)c(C(F)(F)F)nn1-c1ccc(F)c(F)c1 [I-A-Q4-109]	I-A-Q4-109: log P (HCOOH): 4.77
Nc1c(-c2ccc(F)c(Cl)c2)c(C(F)(F)F)nn1-c1ccc(C(=O)O)cc1 [I-A-Q4-094]	I-A-Q4-094: log P (HCOOH): 3.31
CCOC(=O)c1ccc(-n2nc(C(F)(F)F)c(-c3ccc(Cl)cc3Cl)c2N)cc1 [I-A-Q4-085]	I-A-Q4-085: log P (HCOOH): 4.57
N#Cc1ccc(-c2c(C(F)(F)F)nn(-c3ccc(Cl)cn3)c2N)cc1 [I-A-Q4-045]	I-A-Q4-045: log P (HCOOH): 4.11
Cc1nn(-c2ccc(Cl)cn2)c(N)c1-c1ccc(F)cc1 [I-A-Q4-038]	I-A-Q4-038: log P (HCOOH): 3.84
N#Cc1cc(-n2nc(C(F)(F)F)c(-c3cc(Cl)cc(Cl)c3)c2N)ccc1I [I-A-Q4-102]	I-A-Q4-102: log P (HCOOH): 5.94
CCCc1nn(-c2ccc(Cl)cn2)c(N)c1-c1ccc(Cl)cc1 [I-A-Q4-025]	I-A-Q4-025: log P (HCOOH): 5.51
CCS(=O)(=O)c1ccc(-n2nc(C(F)(F)F)c(-c3cc(Cl)cc(Cl)c3)c2N)c(F)c1 [I-A-Q4-019]	I-A-Q4-019: log P (HCOOH): 3.94
Cc1ccc(-c2c(C(F)(F)F)nn(-c3ccc(Cl)cn3)c2N)cc1 [I-A-Q4-055]	I-A-Q4-055: log P (HCOOH): 4.83
Cc1nn(-c2ccc(Cl)cn2)c(N)c1-c1c(F)cccc1Cl [I-A-Q4-031]	I-A-Q4-031: log P (HCOOH): 3.78

Same assay, conditions: HCOOH; Table 6, compounds of formula I-B-Q2

SMILES	log P (HCOOH)
CC(NC(=O)c1ccc(-n2cc(-c3cc(Cl)cc(Cl)c3)c(C(F)(F)F)n2)c2ccccc12)C(F)(F)F (stereo not shown) [I-B-Q2-001]	I-B-Q2-001: log P (HCOOH): 4.74

Same assay, conditions: HCOOH; compounds of the formula (IX), Table 11

SMILES	log P (HCOOH)
Nc1[nH]nc(C(F)(F)F)c1-c1ccc(F)c(F)c1 [IX-201]	IX-201: log P (HCOOH): 2.33
Nc1[nH]nc(C(F)(F)F)c1-c1cc(Cl)cc(Cl)c1 [IX-021]	IX-021: log P (HCOOH): 2.91
Nc1[nH]nc(C(F)(F)F)c1-c1ccc(F)cc1 [IX-202]	IX-202: log P (HCOOH): 2.16

Same assay, conditions: HPLC, reversed-phase C18, mobile phase with formic acid

SMILES	log P (HCOOH)
Cc1nn(-c2ccc(-n3cncn3)c(C#N)c2)c(N)c1-c1c(F)cccc1F [I-A-Q1-054]	I-A-Q1-054: log P (HCOOH): 2.18
COc1cnn(-c2ccc(-n3nc(C(F)(F)F)c(-c4cc(Cl)cc(Cl)c4)c3N)cc2C#N)c1 [I-A-Q1-085]	I-A-Q1-085: log P (HCOOH): 4.45
N#Cc1cc(-n2nc(C(F)(F)Oc3ccccc3)c(-c3cc(Cl)cc(C(F)(F)F)c3)c2N)ccc1-n1cncn1 [I-A-Q1-074]	I-A-Q1-074: log P (HCOOH): 4.33
N#Cc1cc(-n2nc(C(F)(F)F)c(-c3ccc(Cl)c(F)c3)c2N)ccc1-n1cncn1 [I-A-Q1-032]	I-A-Q1-032: log P (HCOOH): 3.28
Cc1ccccc1-c1c(C(F)(F)F)nn(-c2ccc(-n3cncn3)c(C#N)c2)c1N [I-A-Q1-039]	I-A-Q1-039: log P (HCOOH): 2.89
CC(=O)NCc1ccc(-n2nc(C(F)(F)F)c(-c3cc(Cl)cc(Cl)c3)c2N)cc1Cl [I-A-Q3-023]	I-A-Q3-023: log P (HCOOH): 3.70
N#Cc1cc(-n2nc(C3CC3)c(-c3ccc(Cl)cc3)c2N)ccc1-n1cncn1 [I-A-Q1-064]	I-A-Q1-064: log P (HCOOH): 3.31

Same assay, conditions: HPLC, reversed-phase C18, mobile phase with formic acid; read-out: log P (HCOOH)

SMILES	chromatographic logP
CCOC(=O)c1ccc(-n2nc(C(F)(F)F)c(-c3ccc(Cl)c(Cl)c3)c2N)cc1C [I-A-Q4-013, Ethyl 4-[5-amino-4-(3,4-dichlorophenyl)-3-(trifluoromethyl)-1H-pyrazol-1-yl]-2-methylbenzoate]	5.24
